Results taken from paper PMC6222476 (Molecules : A Journal of Synthetic Chemistry and Natural …, 2018).
Read-outs that look alike come from different tables or passages of the source.

How the values were obtained:
[1] = system: IMR-32 neuroblastoma cell line; test: cells; type: cell-based, human; settings: SRB assay, 48 h
Protocol: (§1) All the newly synthesized compounds were screened for their in vitro anticancer activity against six cancer cell lines: SK-MEL-2, MCF-7, IMR-32, MG-63, HT-29 and Hep-G2 by SRB assay, using adriamycin as a standard drug. All the synthesized derivatives 4(a–n) were also tested for their cytotoxic effect on normal cell lines i.e., NIH/3T3 (murine embryonic fibroblast by the SRB assay method. The cell lines were grown in RPMI 1640 medium containing 10% fetal bovine serum and 2 mM L-glutamine. For the present screening experiments, cells were inoculated into 96 well microtiter plates in 90 µL at 5000 cells per well. After cell inoculation, the microtiter plates were incubated at 37 °C, 5% CO2, 95% air and 100% relative humidity for 24 h prior to addition of experimental drugs. Experimental drugs were solubilized in appropriate solvent to prepare stock of 10^−2 concentration. At the time of experiment four 10-fold serial dilutions were made using complete medium. Aliquots of 10 µL of these different drug dilutions were added to the appropriate micro-titer wells already containing 90 µL of medium, resulting in the required final drug concentrations. After compound addition, plates were incubated at standard conditions for 48 h. and assay was terminated by the addition of cold trichloroacetic acid (TCA). Cells were fixed in situ by the gentle addition of […] (final concentration, 10% TCA) and incubated for 60 min at 4 °C. The supernatant was discarded; the plates were washed five times with tap water and air dried.
(§2) Sulforhodamine B (SRB) solution (50 µL) at 0.4% (w/v) in 1% acetic acid was added to each of the wells, and plates were incubated for 20 min at room temperature. After staining, unbound dye was recovered and the residual dye was removed by washing five times with 1% acetic acid. The plates were air dried. Bound stain was subsequently eluted with 10 mM trizma base, and the absorbance was read on an ELISA plate reader at a wavelength of 540 nm with 690 nm reference wavelength. All the tests were repeated in at least three independent experiments at the concentrations of 10, 20, 40 and 80 µg/mL [57].

[2] = system: HT-29 human colon cancer cell line; test: cells; type: cell-based; settings: for anticancer activity compared with standard drug adriamycin, HT-29: HT-29 (human colon cancer) cell line; for GI50: SRB assay, 48 h, HT-29
Protocol: as §1, §2

[3] = system: Hep-G2 human hepatoma cell line; test: cells; type: cell-based; settings: for GI50: SRB assay, 48 h, Hep-G2
Protocol: as §1, §2

[4] = system: MCF-7 human breast cancer cell line; test: cells; type: cell-based; settings: 48 h
Protocol: as §1, §2

[5] = system: MG-63 human osteosarcoma cell line; test: cells; type: cell-based; settings: SRB assay, 48 h
Protocol: as §1, §2

[6] = system: SK-MEL-2 human melanoma cancer cell line; test: cells; type: cell-based; settings: SRB assay, 48 h, read-out: GI50 SKMEL-2
Protocol: as §1, §2

[7] = in vitro; type: cell-based; settings: mouse, SRB assay, normal murine embryonic fibroblast cell line; for GI50: read-out: GI50 NIH/3T3
Protocol: as §1, §2

[8] = system: NIH/3T3 normal murine embryonic fibroblast cell line; test: in vitro; type: cell-based; settings: SRB assay
Protocol: as §1, §2

[9] = system: Swiss albino mice; test: In vivo acute oral toxicity study and gross behavioral studies (OECD Guideline no. 425); design: key to Additional Observation: Convulsions / Behavioral Observation: Motor Activity / Behavioral Observation: Stereotypy / Behavioral Observation: Tremors / Behavioral Observation: Catalepsy / Behavioral Observation: Sedation / Behavioral Observation: Hypnosis / Behavioral Observation: Muscle Spasm / Behavioral Observation: Analgesia / Behavioral Observation: Arching & Rolling / Additional Observation: Skin and Fur / Additional Observation: Eyes Lacrimation / Additional Observation: Salivation / Additional Observation: Diarrhea / Additional Observation: Respiration / Additional Observation: Straub Tail / Additional Observation: Pilo Erection: N. no; Y: Yes; settings: for Additional Observation: Convulsions / Additional Observation: Diarrhea / Additional Observation: Eyes Lacrimation / Additional Observation: Pilo Erection / Additional Observation: Respiration / Additional Observation: Salivation / Additional Observation: Skin and Fur / Additional Observation: Straub Tail / Behavioral Observation: Analgesia / Behavioral Observation: Arching & Rolling / Behavioral Observation: Catalepsy / Behavioral Observation: Hypnosis / Behavioral Observation: Motor Activity / Behavioral Observation: Muscle Spasm / Behavioral Observation: Sedation / Behavioral Observation: Stereotypy / Behavioral Observation: Tremors / No. of Death / Toxicity: Swiss albino mice; for Additional Observation: Convulsions / Additional Observation: Diarrhea / Additional Observation: Eyes Lacrimation / Additional Observation: Pilo Erection / Additional Observation: Respiration / Additional Observation: Salivation / Additional Observation: Skin and Fur / Additional Observation: Straub Tail / Behavioral Observation: Analgesia / Behavioral Observation: Arching & Rolling / Behavioral Observation: Catalepsy / Behavioral Observation: Hypnosis / Behavioral Observation: Motor Activity / Behavioral Observation: Muscle Spasm / Behavioral Observation: Sedation / Behavioral Observation: Stereotypy / Behavioral Observation: Tremors: single oral dose; for No. of Death / Toxicity: single oral dose 100-2000 mg/kg; for lethal dose / mortality: mice, oral; for mortality: up to 2000 mg/kg
Protocol: The in vivo acute oral toxicity study for the newly synthesized scaffolds 4b and 4h was performed according to the OECD Guideline no. 425 [60] using Swiss albino mice (18–22 gm weight) quarantined at the animal house at Y.B. Chavan College of Pharmacy, Aurangabad IAEC approval number CPCSEA/IAEC/P’col-52/2015-16/115. Each group consisted of six mice (overnight fasted) and kept in a colony cage at 25 ± 2 °C with 55% relative humidity and 12 h of light and dark cycle. A specified dose of 100, 250, 500, 750, 1000, 1500 and 2000 mg/kg body weight of mice was administered orally as a single dose. The acute toxic symptoms and the behavioral changes produced by the test compounds were observed continuously for 4 h periods at 8th, 12th and 24th h. Onset of toxic symptoms and the gross behavioral changes were also recorded. These animals were maintained for further 10 days with observations made daily. In case the animal appeared moribund (dying) the animal was sacrificed in a humane way and it is considered to have died because of toxicity.

CCOP(=O)(OCC)C(N/N=C1\C(=O)Nc2ccccc21)c1ccc([N+](=O)[O-])cc1 (stereo not drawn) [4m, (Z)-Diethyl (4-nitrophenyl)(2-(2-oxoindolin-3-ylidene)hydrazinyl)methylphosphonate]
GI50 ([1]; Homo sapiens): 56.6 µM | anticancer activity compared with standard drug adriamycin, HT-29 [2]: equipotent | GI50 ([2]; Homo sapiens): < 0.1 µM | GI50 ([3]; Homo sapiens, HepG2): 13.3 µM | GI50 ([4]; Homo sapiens, MCF7, SRB assay): 77.2 µM | GI50 ([5]; Homo sapiens): < 0.1 µM | GI50 ([6]; Homo sapiens): 44.2 µM | GI50 [7]: > 250 µM | melting point: 172 to 174 °C

CCOP(=O)(OCC)C(N/N=C1\C(=O)Nc2ccccc21)c1ccccc1O (stereo not drawn) [4k, (Z)-Diethyl (2-hydroxyphenyl)(2-(2-oxoindolin-3-ylidene)hydrazinyl)methylphosphonate]
GI50 ([1]; Homo sapiens): 44.1 µM | GI50 ([2]; Homo sapiens): 26.1 µM | GI50 ([3]; Homo sapiens, HepG2): 11.7 µM | GI50 ([4]; Homo sapiens, MCF7, SRB assay): > 100 µM | GI50 ([5]; Homo sapiens): < 0.1 µM | GI50 ([6]; Homo sapiens): 66.2 µM | GI50 [7]: > 250 µM | melting point: 152 to 154 °C

CCOP(=O)(OCC)C(N/N=C1\C(=O)Nc2ccccc21)c1scnc1C (stereo not drawn) [4n, (Z)-Diethyl (4-methylthiazole-5-yl)(2-(2-oxoindolin-3-ylidene)hydrazinyl)methylphosphonate]
GI50 ([1]; Homo sapiens): 67.8 µM | anticancer activity compared with standard drug adriamycin, HT-29 [2]: equipotent | GI50 ([2]; Homo sapiens): < 0.1 µM | GI50 ([3]; Homo sapiens, HepG2): 24.9 µM | GI50 ([4]; Homo sapiens, MCF7, SRB assay): 58.2 µM | GI50 ([5]; Homo sapiens): < 0.1 µM | GI50 ([6]; Homo sapiens): 33.1 µM | GI50 [7]: > 250 µM | melting point: 188 to 190 °C

COc1cccc2c1C(=O)c1c(O)c3c(c(O)c1C2=O)C[C@@](O)(C(=O)CO)C[C@@H]3O[C@H]1C[C@H](N)[C@H](O)[C@H](C)O1 [ADR, Adriamycin, reference compound]
GI50 ([1]; Homo sapiens): < 0.1 µM | GI50 ([2]; Homo sapiens): < 0.1 µM | GI50 ([3]; Homo sapiens, HepG2): < 0.1 µM | GI50 ([4]; Homo sapiens, MCF7, SRB assay): < 0.1 µM | GI50 ([5]; Homo sapiens): < 0.1 µM | GI50 ([6]; Homo sapiens): < 0.1 µM | GI50 at 48 h ([7]; NIH/3T3 normal murine embryonic fibroblast cells): 82.2 µM

CCOP(=O)(OCC)C(NN=C1C(=O)Nc2ccccc21)c1ccc(Cl)cc1 (stereo not drawn) [4b, Diethyl(4-chlorophenyl)(2-(2-oxoindolin-3-ylidene)hydrazinyl)methylphosphonate]
GI50 [1]: > 100 µM | GI50 [2]: 46.9 µM | GI50 [3]: 18.6 µM | GI50 ([4]; SRB assay): 67.2 µM | GI50 [5]: < 0.1 µM | GI50 [6]: 41.4 µM | GI50 [8]: > 250 µM | Additional Observation: Convulsions [9]: N | Additional Observation: Diarrhea [9]: N | Additional Observation: Eyes Lacrimation [9]: N | Additional Observation: Pilo Erection [9]: Y | Additional Observation: Respiration [9]: N | Additional Observation: Salivation [9]: N | Additional Observation: Skin and Fur [9]: N | Additional Observation: Straub Tail [9]: N | Behavioral Observation: Analgesia [9]: N | Behavioral Observation: Arching & Rolling [9]: N | Behavioral Observation: Catalepsy [9]: N | Behavioral Observation: Hypnosis [9]: N | Behavioral Observation: Motor Activity [9]: N | Behavioral Observation: Muscle Spasm [9]: N | Behavioral Observation: Sedation [9]: N | Behavioral Observation: Stereotypy [9]: N | Behavioral Observation: Tremors [9]: N | No. of Death [9]: Nil | Toxicity [9]: free of any toxicity and Nil | lethal dose [9]: above 2000 mg/kg body weight | mortality [9]: No mortality

CCOc1cc(C(N/N=C2\C(=O)Nc3ccccc32)P(=O)(OCC)OCC)ccc1O (stereo not drawn) [4h, (Z)-Diethyl(3-ethoxy-4-hydroxyphenyl)(2-(2-oxoindolin-3-ylidene)hydrazinyl)methylphosphonate]
GI50 [1]: > 100 µM | GI50 [2]: 4.1 µM | GI50 [3]: 43.8 µM | GI50 ([4]; SRB assay): 70.7 µM | GI50 [5]: < 0.1 µM | GI50 [6]: 51 µM | GI50 [8]: > 250 µM | Additional Observation: Convulsions [9]: N | Additional Observation: Diarrhea [9]: N | Additional Observation: Eyes Lacrimation [9]: N | Additional Observation: Pilo Erection [9]: Y | Additional Observation: Respiration [9]: N | Additional Observation: Salivation [9]: N | Additional Observation: Skin and Fur [9]: N | Additional Observation: Straub Tail [9]: N | Behavioral Observation: Analgesia [9]: N | Behavioral Observation: Arching & Rolling [9]: N | Behavioral Observation: Catalepsy [9]: N | Behavioral Observation: Hypnosis [9]: N | Behavioral Observation: Motor Activity [9]: Y | Behavioral Observation: Muscle Spasm [9]: N | Behavioral Observation: Sedation [9]: N | Behavioral Observation: Stereotypy [9]: N | Behavioral Observation: Tremors [9]: N | No. of Death [9]: Nil | Toxicity [9]: free of any toxicity and Nil | lethal dose [9]: above 2000 mg/kg body weight | mortality [9]: No mortality

CCOP(=O)(OCC)C(N/N=C1\C(=O)Nc2ccccc21)c1ccc(O)c(C)c1 (stereo not drawn) [4l, (Z)-Diethyl (4-hydroxy-3-methylphenyl)(2-(2-oxoindolin-3-ylidene)hydrazinyl)methylphosphonate]
GI50 ([1]; Homo sapiens): 89.8 µM | anticancer activity compared with standard drug adriamycin, HT-29 [2]: equipotent | GI50 ([2]; Homo sapiens): < 0.1 µM | anticancer activity compared with standard drug Adriamycin, Hep-G2 ([3]; Hep-G2 (human hepatoma) cell line): equipotent | GI50 ([3]; Homo sapiens, HepG2): < 0.1 µM | GI50 ([4]; Homo sapiens, MCF7, SRB assay): 78.4 µM | GI50 ([5]; Homo sapiens): < 0.1 µM | GI50 ([6]; Homo sapiens): 76.4 µM | GI50 [7]: > 250 µM | melting point: 190 to 192 °C
